Test [1] relates to K63-Ub4. Description: Fluorescence anisotropy binding of fluorescent free UBA domains to K63-Ub4. The following applies: free UBA domains. From the text:
(§1) Fluorescent Labeling. Ede1 UBA, hHR23A UBA1, Dsk2 UBA and Ddi1 UBA were produced as intein fusions and fluorescently labeled using expressed protein ligation as described in Scheibner et al., 2003. The dipeptide used for Ede1 labeling was Cys-Lys, with NHS-rhodamine (Pierce) coupled to the lysine amino group, and was a kind gift from Philip Cole (Johns Hopkins School of Medicine). MALDI mass spectroscopy confirmed the addition of the fluorescent dipeptide to the Ede1 UBA domain and that there was complete cleavage of the initiating methionine residue. hHR23A UBA1, Dsk2, and Ddi1 UBAs were labeled in a similar way, except that the dipeptide contained a fluorescein moiety instead of rhodamine. The fluorescein-labeled dipeptide was made as described in Scheibner et al., 2003. […]
(§2) Fluorescence Anisotropy Binding Assays. Fluorescence anisotropy measurements were performed as described (Sims and Cohen, 2009) using excitation and emission maxima of 492 nm/520 nm (fluorescein), 556 nm/569 nm (Alexa Fluor 546), or 555 nm/578 nm (rhodamine), in binding buffer at 25° C. The concentrations of the fluorescent proteins were calculated using published extinction coefficients (Invitrogen-Molecular Probes). polyUb concentrations were assessed from absorbance at 280 nm using the Ub extinction coefficient of 0.16 (mg per ml)^−1 cm^'1.49. […]

The target of test [2] is K48-Ub4. Kind of test: Fluorescence anisotropy binding of fluorescent free UBA domains to K48-Ub4. The following applies: free fluorescent UBA domain.
Source text: as §1, §2

The target of test [3] is T1, K63-Ub4 (Homo sapiens, UniProt P0CG47, K63R).
T1 construct: Ub and K48- and K63-linked diUb and tetraUb were made as described; made in house
Description: SPR of captured GST-UBA proteins with K63-Ub4. The test is classed as binding. The following applies: SPR (Table 4) versus fluorescence anisotropy (Table 5). The method, then:
Surface Plasmon Resonance. SPR analyses was performed on a Biacore 3000 instrument at 25° C. in HBS-EP buffer (Biacore). Anti-GST antibody (Biacore) was immobilized by amine coupling on a Biacore CM5 chip. GST-UBA proteins were captured on a measurement surface at a density of 150-400 RU; an antibody-coupled surface served as the reference. Ubn chains were applied to the chip with a 5 μl/min flow rate and recorded the response; 50 mM glycine pH 1.8 or 15 mM NaOH was used to remove GST-UBA proteins and renew the surface. The data was fit with a single-site binding model as described in Wilkinson, 2004.

Test [4] deals with K63-Ub4 and K48-Ub4. Kind of test: GST pull-down assay with 125I-labeled K63- or K48-Ub4. The test is classed as binding. The method, then: Pull-Down Assays. GST-UBA protein was added to 15 μl of glutathione-agarose and the beads were washed with binding buffer [25 mM phosphate pH 7.4, 150 mM NaCl, 10 mM β-mercaptoethanol, 1 mM EDTA, 0.05% (v/v) Brij35]. ^125I-labeled K63 or K48-Ub4 (1 μM) was then added in 100 μl of binding buffer plus 1 mg ml^−1 BSA, and the beads agitated gently for 20 min. at room temperature. The specific radioactivities of ^125I-labeled K63- and K48-Ub4 were normalized beforehand with unlabeled chains. The beads were then washed quickly 2 or 3 times with binding buffer. The bound chains were eluted with SDS-PAGE sample buffer and resolved by SDSPAGE. The Ub4 bands were excised from the gel and quantified with a gamma-counter. “Bound counts” in FIG. 12d and FIG. 15d is the radioactivity (cpm) for a particular band minus the counts in the corresponding gel slice in the negative-control lane.

Test [5] has as its target T2, K63-Ub2 (Homo sapiens, UniProt P0CG47, K63R).
T2 construct: Ub and K48- and K63-linked diUb and tetraUb were made as described; made in house
Description: Fluorescence anisotropy binding of fluorescent tUIM peptides to K63-Ub2. The following applies: fluorescence anisotropy. The source says: Fluorescent Labeling. Rap80 tUIM peptides were fluorescently-labeled on the sulfhydryl group of C121 (see FIG. 1). For longer Rap80 constructs, all cysteines except C121 were mutated to serine for site-specific labeling. Ataxin-3 and Vps27 UIM peptides were labeled on a single cysteine introduced at the C-terminus. Fluorescein-5-maleimide (Pierce) was coupled to cysteines following the manufacturer's instructions. After desalting through Sephadex G-25 resin, fluorescein-labeled tUIM peptides were separated from unlabeled peptides by anion-exchange chromatography (MonoQ column, GE Biosciences) by elution with a NaCl gradient in 50 mM Tris buffer, pH 7.9. The labeled peptides were essentially 100% pure by SDS-PAGE and Coomassie blue staining, and MALDI-TOF mass spectrometry confirmed the addition of a single fluorescein moiety. Fluorescence Anisotropy Binding Assays. Fluorescence anisotropy measurements were made using a Fluoromax 4 fluorometer in L format, thermostatted at 25° C. Excitation and emission monochromators were set at 492 nm and 520 nm, respectively. Slit widths were 3 nm for diUb-binding assays ([…]) or 6 nm for tetraUb-binding assays ([…]). Anisotropies were calculated by the instrument software, and the overall intensity of the fluorescence signal was monitored at each point with the polarizers oriented at the magic angle. All measurements were made in fluorescence buffer (25 mM Na phosphate [pH 7.4], 150 mM NaCl, 5 mM β-mercaptoethanol, 1 mM EDTA, and either 0.005% surfactant P20 (BIACORE) or 0.05% Brij35). Concentrations of the fluorescent proteins were calculated using the fluorescein extinction coefficient at 494 nm, 68000 M^-1 cm^-1. (poly)Ub concentrations were assessed by absorbance at 280 nm using the extinction coefficient 0.16 (mg/ml)^-1 cm^-1 ([…] and Raasi, 2005). Fluorescence anisotropy data were fit with a single-site binding model as described (Wilkinson, 2004). The equilibrium constants for wild-type Vps27 peptide binding to K63 and K48 Ub4 were determined by competition with the fluorescent Vps27 7aa linker peptide as described (Wilkinson, 2004).

Test [6] concerns the target T3, monoUb (Homo sapiens, UniProt P0CG47).
T3 construct: Ub and K48- and K63-linked diUb and tetraUb were made as described; made in house
Kind of test: Fluorescence anisotropy binding of fluorescent UIM peptides to monoUb. From the text: (§3) Fluorescent Labeling. Rap80 tUIM peptides were fluorescently-labeled on the sulfhydryl group of C121 (see FIG. 1). For longer Rap80 constructs, all cysteines except C121 were mutated to serine for site-specific labeling. Ataxin-3 and Vps27 UIM peptides were labeled on a single cysteine introduced at the C-terminus. Fluorescein-5-maleimide (Pierce) was coupled to cysteines following the manufacturer's instructions. After desalting through Sephadex G-25 resin, fluorescein-labeled tUIM peptides were separated from unlabeled peptides by anion-exchange chromatography (MonoQ column, GE Biosciences) by elution with a NaCl gradient in 50 mM Tris buffer, pH 7.9. […] Fluorescence Anisotropy Binding Assays. Fluorescence anisotropy measurements were made using a Fluoromax 4 fluorometer in L format, thermostatted at 25° C. […] Anisotropies were calculated by the instrument software, and the overall intensity of the fluorescence signal was monitored at each point with the polarizers oriented at the magic angle. All measurements were made in fluorescence buffer (25 mM Na phosphate [pH 7.4], 150 mM NaCl, 5 mM β-mercaptoethanol, 1 mM EDTA, and either 0.005% surfactant P20 (BIACORE) or 0.05% Brij35). Concentrations of the fluorescent proteins were calculated using the fluorescein extinction coefficient at 494 nm, 68000 M^-1 cm^-1. […]

Test [7] has as its target T4, K48-Ub2 (Homo sapiens, UniProt P0CG47, K48R).
T4 construct: Ub and K48- and K63-linked diUb and tetraUb were made as described; made in house
Kind of test: Fluorescence anisotropy binding of fluorescent tUIM peptides to K48-Ub2. Conditions: single-site fit, 25° C., pH 7.4.
Description: Fluorescence Anisotropy Binding Assays. Fluorescence anisotropy measurements were made using a Fluoromax 4 fluorometer in L format, thermostatted at 25° C. Excitation and emission monochromators were set at 492 nm and 520 nm, respectively. Slit widths were 3 nm for diUb-binding assays (1 mM fluorophore) or 6 nm for tetraUb-binding assays (0.1 mM fluorophore). Anisotropies were calculated by the instrument software, and the overall intensity of the fluorescence signal was monitored at each point with the polarizers oriented at the magic angle. All measurements were made in fluorescence buffer (25 mM Na phosphate [pH 7.4], 150 mM NaCl, 5 mM β-mercaptoethanol, 1 mM EDTA, and either 0.005% surfactant P20 (BIACORE) or 0.05% Brij35). Concentrations of the fluorescent proteins were calculated using the fluorescein extinction coefficient at 494 nm, 68000 M^-1 cm^-1. (poly)Ub concentrations were assessed by absorbance at 280 nm using the extinction coefficient 0.16 (mg/ml)^-1 cm^-1 ([…] and Raasi, 2005). Fluorescence anisotropy data were fit with a single-site binding model as described (Wilkinson, 2004).

In test [8] the target is T1, K63-Ub4. Description: Fluorescence anisotropy binding of fluorescent tUIM peptides to K63-Ub4. The following applies: fluorescence anisotropy, single-site fit, 25° C., pH 7.4.
Source text: as §3

For test [9], the system named is K48-Ub4. Kind of test: Fluorescence anisotropy binding of fluorescent tUIM peptides to K48-Ub4.
Source text: as §3

The mark [10] stands for this setting: single-site fit, 25° C., pH 7.4.

Values joined by “and” are separate entries in the source; they are usually repeats but may differ in a detail not shown here. Equal values may be shown once. Where no end group is shown, it is not given here. The star is where a group is joined. Fluorescein(5-Mal) = O=C1OC2(c3ccc(O)cc3Oc3cc(O)ccc32)c2ccc(N3C(=O)CC(*)C3=O)cc21 Bounds are passed on as bounds.

As for Ddi1, in [1], the “difference in Kd for K63- and K48-Ub4” value is < 2 fold. The same substance showed a Kd in test [2] of 50 µM.
On to “GST-UBA Ede1: GST fusion of the yeast Ede1 UBA domain, dimeric; sequence in Table 3 (GSATTPKSLAVEELSGMGFTEEEAHNALEKCNWDLEAATNFLLDSA; also: GST fusion, dimeric)”, for which the “K63-Ub4 affinity of the GST fusion tighter than the free domain” value in test [3] is listed as 9 fold. Moreover, in test [4] (125I-labeled Ub4 1 μM, bound counts, listed as GST-Ede1), the “preference for K63-Ub4 over K48-Ub4 by pull-down” value was 12 fold and > 11 fold.
With “GST-UBA hHR23A UBA1: GST fusion of human hHR23A UBA1 domain; sequence in Table 3”, the “K63-Ub4 affinity of the GST fusion tighter than the free domain” value in test [3] is reported as > 6 fold.
For “GST-fmm: functionally monomeric mixture: GST-His homodimers and GST-His/GST-Ede1 heterodimers at about 6:1 (GSATTPKSLAVEELSGMGFTEEEAHNALEKCNWDLEAATNFLLDSA; also: GST-His fusion, mixture of GST-His homodimers and GST-His/GST-Ede1 heterodimers at about 6:1)”, in [4] (125I-labeled K63-Ub4 versus K48-Ub4), the “Ub4 linkage preference by pull-down” value is “no linkage preference”.
As for “PSSHHHHHHSSGLVPRGSHMTEEEQEQEAREVNSQEEEEEELLRKAIAESLNSC(Fluorescein(5-Mal))RPS [UIM2]”, the Kd in test [5] (text of Example 2) was 470 µM; in test [6], 520 µM; in [7], 200 µM.
With “PSSHHHHHHSSGLVPRGSHMTEEEQFALALKMSEQEAAAEEEEELLRKAIAESLNSC(Fluorescein(5-Mal))RPS [Rap80 2A linker]”, the Kd amounted to 110 µM in [5] (setting [10]), 19 µM in [8] and 180 µM in test [7].
Consider “PSSHHHHHHSSGLVPRGSHMTEEEQFALALKMSEQEADMEEEEELLRKAIAESLNSC(Fluorescein(5-Mal))RPS [Rap80 ataxin linker]”, for which the Kd in test [5] (setting [10]) was 115 µM; in test [8] it was 20 µM; in [7] it was 143 µM.
Consider “PSSHHHHHHSSGLVPRGSHMTEEEQFALALKMSEQEAEEEEELLRKAIAESLNSC(Fluorescein(5-Mal))RPS [Rap80 no linker]”, for which the Kd in [5] (setting [10]) was 47 µM.
Consider “PSSHHHHHHSSGLVPRGSHMTEEEQFALALKMSEQEAREVNSQEEEEEELLNSC(Fluorescein(5-Mal))RPS [UIM1]”, for which the Kd in test [5] (text of Example 2) is 230 µM; in test [6], 510 µM; in test [7] it was 280 µM.
For the substance “ataxin-3 (WT): human ataxin-3 tandem UIM peptide, 2-residue linker DM”, the Kd in test [5] (setting [10]) is 91 µM; in [7], 100 µM; in test [9] (fluorescence anisotropy, single-site fit, 25° C., pH 7.4), 3.3 µM. The “preference for K48-Ub4 over K63-Ub4” value in test [9] (fluorescence anisotropy Kd values, Table 2) is given as 5 fold.
